pIC50, pKi: −log10 of the molar value.
Experiments:
Assay in all cases: Radioligand Binding Assay
Adenosine receptor A2a = Adenosine receptor A2a (Homo sapiens, UniProt P29274)
Experimental: (§1) For all four adenosine receptors (A1, A2A, A2B and A3) filtration binding assay was performed. Radioligand binding competition assay was done in duplicates in the wells of a 96-well plate (Master Block, Greiner, 786201) containing binding buffer, receptor membrane extracts, a fixed concentration of tracer and test compound at increasing concentrations. In order to eliminate effect of buffer components, binding buffer was the same for all four receptors and contained: 50 mM Tris-HCl pH 7.4, 5 mM MgCl2, 1 mM EDTA, 150 mM NaCl, 0.1% Na-azide, and 5 U/ml adenosine-deaminase. Nonspecific binding was determined by co-incubation with 200-fold excess of cold competitor. In all radioligand binding experiments, the samples were incubated in a final volume of 0.1 ml for 60 minutes at 25° C. and then filtered over Unifilter plates (Perkin Elmer) pre-treated for 2 hours to limit tracer non-specific binding. Filters were washed five times with 0.5 ml of ice-cold washing buffer (50 mM Tris-HCl pH 7.4, 5 mM MgCl2, 1 mM EDTA) and 50 μl of Microscint 20 (Perkin Elmer) were added to each filter. The plates are incubated 15 min at room temperature on an orbital shaker and then counted with a TopCount™ for 1 min/well.

Adenosine receptor A2b = biological target: T1, Adenosine receptor A2b (Homo sapiens, UniProt P29275)
T1 sequence (P29275 whole entry): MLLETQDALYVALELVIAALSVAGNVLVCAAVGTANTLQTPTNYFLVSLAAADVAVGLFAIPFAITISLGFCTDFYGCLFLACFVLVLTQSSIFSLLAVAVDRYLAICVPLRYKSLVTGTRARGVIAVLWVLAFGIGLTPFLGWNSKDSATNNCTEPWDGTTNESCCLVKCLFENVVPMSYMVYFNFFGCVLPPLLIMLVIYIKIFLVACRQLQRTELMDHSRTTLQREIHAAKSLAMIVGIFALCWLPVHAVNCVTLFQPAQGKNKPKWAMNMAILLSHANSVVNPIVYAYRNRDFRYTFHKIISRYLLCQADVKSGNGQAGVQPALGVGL
Experimental: as §1

Adenosine receptor A3 = biological target: T2, Adenosine receptor A3 (Homo sapiens, UniProt P0DMS8)
T2 sequence (P0DMS8 whole entry): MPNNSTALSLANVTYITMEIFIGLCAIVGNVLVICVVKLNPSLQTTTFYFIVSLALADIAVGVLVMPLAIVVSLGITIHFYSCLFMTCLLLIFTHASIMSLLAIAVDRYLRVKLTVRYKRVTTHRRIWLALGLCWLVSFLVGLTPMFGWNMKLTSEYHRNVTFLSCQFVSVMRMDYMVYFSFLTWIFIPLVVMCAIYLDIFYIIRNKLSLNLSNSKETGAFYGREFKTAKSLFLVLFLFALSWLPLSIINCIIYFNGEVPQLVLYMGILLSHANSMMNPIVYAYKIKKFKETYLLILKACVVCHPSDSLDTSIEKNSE
Experimental: as §1

Chain of Adenosine receptor A2a (P29274 whole entry): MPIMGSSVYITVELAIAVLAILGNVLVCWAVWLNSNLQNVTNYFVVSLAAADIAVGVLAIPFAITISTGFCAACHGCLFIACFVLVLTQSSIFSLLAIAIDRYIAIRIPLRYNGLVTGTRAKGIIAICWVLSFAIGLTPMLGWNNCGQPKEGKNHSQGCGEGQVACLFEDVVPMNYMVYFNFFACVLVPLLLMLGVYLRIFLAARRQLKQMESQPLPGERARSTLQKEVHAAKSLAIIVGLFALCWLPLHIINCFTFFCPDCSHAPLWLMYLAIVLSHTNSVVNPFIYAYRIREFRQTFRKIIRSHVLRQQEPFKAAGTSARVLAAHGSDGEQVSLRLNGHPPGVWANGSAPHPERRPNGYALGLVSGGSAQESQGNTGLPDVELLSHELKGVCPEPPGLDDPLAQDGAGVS

SMILES: Fc1ccccc1-c1nc(Nc2cccnc2)nnc1-c1ccnc(C(F)(F)F)c1 [US12391670, Example 8]
- pIC50 (Adenosine receptor A2a): 4.62
- pKi (Adenosine receptor A2a): 4.62
- pIC50 (Adenosine receptor A2b): 6.60
- pKi (Adenosine receptor A2b): 6.65
- pIC50 (Adenosine receptor A3): 5.87
- pKi (Adenosine receptor A3): 5.99

SMILES: Cc1nsc(Nc2nnc(-c3ccnc(C(F)(F)F)c3)c(-c3ccccc3F)n2)n1 [US12391670, Example 11]
- pKi (Adenosine receptor A2a): < 4.70
- pIC50 (Adenosine receptor A2b): 6.00
- pKi (Adenosine receptor A2b): 6.05

— BindingDB's records for patent US12391670 (Leadxpro, 2025)
